# Where two headings read alike, the source gives them in different places.
# Assays:
# [1] = rcm bond, dichloromethane
# [2] = molecular target: TAFIa (Homo sapiens (Human), UniProt Q96IY4); test: TAFIa inhibition, Actichrome plasma TAFI Activity Kit (American Diagnostica); assay type: biochemical; conditions: chromogenic read-out at 420 nm, 15 min preincubation at room temperature, pH 7.4, duplicate determination
# Experimental: The prepared substances were tested for TAFIa inhibition using the Actichrome plasma TAFI Activity Kit from American Diagnostica (Pr. No. 874). This entailed adding 28 μl of assay buffer (20 mM Hepes, 150 mM NaCl, pH 7.4) and 10 μl of TAFIa (American Diagnostica Pr. No. 874TAFIA; 2.5 μg/ml) to 2 μl of 2.5 mM DMSO solution of the substance and incubating in a 96 half-well microtiter plate at room temperature for 15 minutes. The enzyme reaction was started by adding 10 μl of TAFIa developer (prediluted 1:2 with assay buffer). The time course of the reaction was followed at 420 nm in a microtiter plate reader (SpectraMax plus 384; Molecular Devices) for 15 minutes.
# The IC50 values were calculated from the averaged values (duplicate determination) of serial dilutions of the substance with the aid of the Softmax Pro software (version 4.8; Molecular Devices).
# TAFIa, sequence (Q96IY4 115-423): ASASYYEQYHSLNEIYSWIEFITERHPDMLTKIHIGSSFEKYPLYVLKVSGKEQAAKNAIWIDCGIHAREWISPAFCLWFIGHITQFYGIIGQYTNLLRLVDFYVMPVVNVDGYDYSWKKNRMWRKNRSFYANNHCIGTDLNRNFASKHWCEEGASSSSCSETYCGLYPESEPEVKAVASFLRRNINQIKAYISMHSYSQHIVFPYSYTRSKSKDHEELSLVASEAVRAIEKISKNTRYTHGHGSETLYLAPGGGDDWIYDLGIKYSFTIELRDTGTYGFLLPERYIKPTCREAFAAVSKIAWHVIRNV
Structure (SMILES),IC50 [2] [nM],also measured
CC(C)[C@H]1COCC=CCOc2ccc(cc2)C[C@@H](NC(=O)OCC2c3ccccc3-c3ccccc32)C(=O)N1,,"ring closure, yield of all isomers ([1]; from C=CCOC[C@@H](NC(=O)[C@@H](Cc1ccc(OCC=C)cc1)NC(=O)OCC1c2ccccc2-c2ccccc21)C(C)C, dichloro(o-isopropoxyphenylmethylene)(tricyclohexylphosphine)ruthenium (Hoveyda-Grubbs catalyst), 3.61 mM, 40.0 °C, 24.0 h): 86.6%"
CC(C)[C@H]1COCC=CCn2cnc(c2)C[C@@H](NC(=O)OCc2ccccc2)C(=O)N1,,"ring closure, yield of all isomers ([1]; from C=CCOC[C@@H](NC(=O)[C@@H](Cc1cn(CC=C)cn1)NC(=O)OCc1ccccc1)C(C)C, benzylidene[1,3-bis(2,4,6-trimethylphenyl)-2-imidazolidinylidene]dichloro(tricyclohexylphosphine)ruthenium (Grubbs II catalyst), 4.38 mM, 25.0 °C): 73.3%"
CC(C)[C@H]1COCCCCCC=CCOc2ccc(cc2)C[C@@H](NC(=O)OCC2c3ccccc3-c3ccccc32)C(=O)N1,,"ring closure, yield of all isomers ([1]; from C=CCCCCCOC[C@@H](NC(=O)[C@@H](Cc1ccc(OCC=C)cc1)NC(=O)OCC1c2ccccc2-c2ccccc21)C(C)C, dichloro(o-isopropoxyphenylmethylene)(tricyclohexylphosphine)ruthenium (Hoveyda-Grubbs catalyst), 3.5 mM, 40.0 °C, 24.0 h): 90.4%"
"CC(C)[C@H]1COCCCCOc2ccc(cc2)C[C@@H](NC(=O)N[C@@H](CCCCN)C(=O)O)C(=O)N1 [Example 1-1, (S)-6-Amino-2-[3-((9S,12R)-9-isopropyl-11-oxo-2,7-dioxa-10-azabicyclo[12.2.2]octadeca-1(17),14(18),15-trien-12-yl)ureido]hexanoic acid]",6,
"NCCCC[C@H](NC(=O)N[C@@H]1Cc2ccc(cc2)OCCCCOCCNC1=O)C(=O)O [Example 1-2, (S)-6-Amino-2-[3-((R)-11-oxo-2,7-dioxa-10-azabicyclo[12.2.2]octadeca-1(17),14(18),15-trien12-yl)ureido]hexanoic acid]",9040,
"CC1(C)COCCCCOc2ccc(cc2)C[C@@H](NC(=O)N[C@@H](CCCCN)C(=O)O)C(=O)N1 [Example 1-3, (S)-6-Amino-2-[3-((R)-9,9-dimethyl-11-oxo-2,7-dioxa-10-azabicyclo[12.2.2]octadeca-1(17),14(18),15-trien-12-yl)ureido]hexanoic acid]",269,
"NCCCC[C@H](NC(=O)N[C@@H]1Cc2ccc(cc2)OCCCCOC[C@H](c2ccccc2)NC1=O)C(=O)O [Example 1-4, (S)-6-Amino-2-[3-((9S,12R)-11-oxo-9-phenyl-2,7-dioxa-10-azabicyclo[12.2.2]octadeca-1(17),14(18),15-trien-12-yl)ureido]hexanoic acid]",71,
"NCCCC[C@H](NC(=O)N[C@@H]1Cc2ccc(cc2)OCCCCOC[C@H](Cc2ccccc2)NC1=O)C(=O)O [Example 1-5, (S)-6-Amino-2-[3-((9S,12R)-9-benzyl-11-oxo-2,7-dioxa-10-azabicyclo[12.2.2]octadeca-1(17),14(18),15-trien-12-yl)ureido]hexanoic acid]",105,
"NCCCC[C@H](NC(=O)N[C@@H]1Cc2ccc(cc2)OCCCCOC[C@H](C2CCCCC2)NC1=O)C(=O)O [Example 1-6, (S)-6-Amino-2-[3-((9S,12R)-9-cyclohexyl-11-oxo-2,7-dioxa-10-azabicyclo[12.2.2]octadeca-1(17),14(18),15-trien-12-yl)ureido]hexanoic acid]",811,
"CC[C@H]1COCCCCOc2ccc(cc2)C[C@@H](NC(=O)N[C@@H](CCCCN)C(=O)O)C(=O)N1 [Example 1-7, (S)-6-Amino-2-[3-((9S,12R)-9-ethyl-11-oxo-2,7-dioxa-10-azabicyclo[12.2.2]octadeca-1(17),14(18),15-trien-12-yl)ureido]hexanoic acid]",49,
"C[C@H]1COCCCCOc2ccc(cc2)C[C@@H](NC(=O)N[C@@H](CCCCN)C(=O)O)C(=O)N1 [Example 1-8, (S)-6-Amino-2-[3-((9S,12R)-9-methyl-11-oxo-2,7-dioxa-10-azabicyclo[12.2.2]octadeca-1(17),14(18),15-trien-12-yl)ureido]hexanoic acid]",29,
"CC(C)(C)[C@H]1COCCCCOc2ccc(cc2)C[C@@H](NC(=O)N[C@@H](CCCCN)C(=O)O)C(=O)N1 [Example 1-9, (S)-6-Amino-2-[3-((9S,12R)-9-tert-butyl-11-oxo-2,7-dioxa-10-azabicyclo[12.2.2]octadeca-1(17),14(18),15-trien-12-yl)ureido]hexanoic acid]",19,
"CC(C)[C@H]1COCCCCCCCCOc2ccc(cc2)C[C@@H](NC(=O)N[C@@H](CCCCN)C(=O)O)C(=O)N1 [Example 2-1, (S)-6-Amino-2-[3-((13S,16R)-13-isopropyl-15-oxo-2,11-dioxa-14-azabicyclo[16.2.2]docosa-1(21), 18(22), 19-trien-16-yl)ureido]hexanoic acid]",8.8,

# More lines, main results first:
IC50 [2] [nM],Structure (SMILES),also measured
7.7,"CC(C)[C@H]1COC/C=C/COc2ccc(cc2)C[C@@H](NC(=O)N[C@@H](CCCCN)C(=O)O)C(=O)N1 [Example 3-1, (S)-6-Amino-2-[3-((E)-(9S,12R)-9-isopropyl-11-oxo-2,7-dioxa-10-azabicyclo[12.2.2]octadeca-1(17),4,14(18), 15-tetraen-12-yl)ureido]hexanoic acid]",
17,"CC(C)[C@H]1COCCCCCCCC[C@@H](NC(=O)N[C@@H](CCCCN)C(=O)O)C(=O)N1 [Example 4-1, (S)-6-Amino-2-[3-((3S,6R)-3-isopropyl-5-oxo-1-oxa-4-azacyclotetradec-6-yl)ureido]hexanoic acid]",
649,"CC(C)[C@H]1COCCCCOc2ccc(cc2)C[C@@H](NC(=O)N[C@@H](CS(=O)(=O)CCN)C(=O)O)C(=O)N1 [Example 5-1, (R)-3-(2-Aminoethanesulfonyl)-2-[3-((9S,12R)-9-isopropyl-11-oxo-2,7-dioxa-10-azabicyclo[12.2.2]octadeca-1(17),14(18), 15-trien-12-yl)ureido]propionic acid]",
9,"CC(C)[C@H]1COCCCCOc2ccc(cc2)C[C@@H](NC(=O)N[C@@H](Cc2ccc(N)nc2)C(=O)O)C(=O)N1 [Example 5-2, (S)-3-(6-Aminopyridin-3-yl)-2-[3-((9S,12R)-9-isopropyl-11-oxo-2,7-dioxa-10-azabicyclo[12.2.2]octadeca-1(17),14(18), 15-trien-12-yl)ureido]propionic acid]",
32,"Nc1ccc(C[C@H](NC(=O)N[C@@H]2Cc3ccc(cc3)OCCCCOC[C@H](C3CC3)NC2=O)C(=O)O)cn1 [Example 5-3, (S)-3-(6-Aminopyridin-3-yl)-2-[3-((9S,12R)-9-cyclopropyl-11-oxo-2,7-dioxa-10-azabicyclo[12.2.2]octadeca-1(17),14(18), 15-trien-12-yl)ureido]propionic acid]",
52,"CC(C)[C@H]1COCCCCn2cnc(c2)C[C@@H](NC(=O)N[C@@H](Cc2ccc(N)nc2)C(=O)O)C(=O)N1 [Example 6-1, (S)-3-(6-Aminopyridin-3-yl)-2-[3-((8S,11R)-8-isopropyl-10-oxo-6-oxa-1,9,14-triazabicyclo[11.2.1]hexadeca-13(16),14-dien-11-yl)ureido]propionic acid]",
21,"CC(C)[C@H]1COCCCCc2ccc(cc2)C[C@@H](NC(=O)N[C@@H](Cc2ccc(N)nc2)C(=O)O)C(=O)N1 [Example 6-2, (S)-3-(6-Aminopyridin-3-yl)-2-[3-((3R,6S)-6-isopropyl-4-oxo-8-oxa-5-azabicyclo[11.2.2]heptadeca-1(16),13(17), 14-trien-3-yl)ureido]propionic acid]",
12,"CC(C)[C@H]1COCCCCOc2ccc(cc2F)C[C@@H](NC(=O)N[C@@H](Cc2ccc(N)nc2)C(=O)O)C(=O)N1 [Example 6-3, (S)-3-(6-Aminopyridin-3-yl)-2-[3-((9S,12R)-16-fluoro-9-isopropyl-11-oxo-2,7-dioxa-10-azabicyclo[12.2.2]octadeca-1(17),14(18), 15-trien-12-yl)ureido]propionic acid]",
55,"CC(C)[C@H]1COCCCCOC[C@@H](NC(=O)N[C@@H](Cc2ccc(N)nc2)C(=O)O)C(=O)N1 [Example 6-4, (S)-3-(6-Aminopyridin-3-yl)-2-[3-((3S,6R)-3-isopropyl-5-oxo-1,8-dioxa-4-azacyclododec-6-yl)ureido]propionic acid]",
22,"CC(C)[C@H]1COCCC(=O)Nc2ccc(cc2)C[C@@H](NC(=O)N[C@@H](CCCCN)C(=O)O)C(=O)N1 [Example 7-1, (S)-6-Amino-2-[3-((8S,11R)-8-isopropyl-3,10-dioxo-6-oxa-2,9-diazabicyclo[11.2.2]heptadeca-1(16),13(17),14-trien-11-yl)ureido]hexanoic acid]",
40,"CC(C)[C@H]1COCCNC(=O)c2ccc(cc2)C[C@@H](NC(=O)N[C@@H](Cc2ccc(N)nc2)C(=O)O)C(=O)N1 [Example 7-4, (S)-3-(6-Aminopyridin-3-yl)-2-[3-((8S,11R)-8-isopropyl-2,10-dioxo-6-oxa-3,9-diazabicyclo[11.2.2]heptadeca-1(16),13(17), 14-trien-11-yl)ureido]propionic acid]",
23,"CC(C)[C@H]1COCC(O)C(O)COc2ccc(cc2)C[C@@H](NC(=O)N[C@@H](CCCCN)C(=O)O)C(=O)N1 (stereo partly drawn) [Example 8-1, (S)-6-Amino-2-[3-((9S,12R)-4,5-dihydroxy-9-isopropyl-11-oxo-2,7-dioxa-10-azabicyclo[12.2.2]octadeca-1(17),14(18),15-trien-12-yl)ureido]hexanoic acid]",
59,"CC(C)[C@H]1COCC(O)C(O)COc2ccc(cc2)C[C@@H](NC(=O)NC(Cc2ccc(N)nc2)C(=O)O)C(=O)N1 (stereo partly drawn) [Example 8-3, 3-(6-Aminopyridin-3-yl)-2-[3-((9S,12R)-4,5-dihydroxy-9-isopropyl-11-oxo-2,7-dioxa-10-azabicyclo[12.2.2]octadeca-1(17),14(18), 15-trien-12-yl)ureido]propionic acid]",
